In patent publication US20080021069A1, “Receptor Function Regulating Agent” (TAKEDA PHARMACEUTICAL COMPANY LIMITED, priority 2004, published 2008):
pIC50: −log10 of the molar value.

Legend:
human GPR40 = molecular target: T1, human GPR40 (Homo sapiens, UniProt O14842); assay: GPR40 antagonist activity with changes in intracellular calcium concentration as index (NFAT-luciferase reporter, CHO(dhfr-)/GPR40-NFAT-Luc cells); assay type: cell-based; conditions: CHO cell line expressing human GPR40, NFAT-Luc reporter; GPR40 agonist 3-(4-((6-benzyloxy-2',6'-dimethyl-biphenyl-3-yl)methoxy)phenyl)propanoic acid 40 nM; 4 hr culture; 0.1% fatty acid-free BSA
T1 construct: expressed in transfected cells; host or cells: CHO(dhfr-) cells: line CHO-hGPR40 No. 104 of WO2004/041266, with a stably expressed NFAT-TA-Luc reporter (CHO(dhfr-)/GPR40-NFAT-Luc)
Text: Evaluation of GPR40 antagonist activity with changes in intracellular calcium concentration as index
An assay system of GPR40 antagonist was established as follows. In this assay system, as the GPR40 agonist, 3-(4-((6-benzyloxy-2′,6′-dimethyl-biphenyl-3-yl)methoxy)phenyl)propanoic acid (compound described in Example 340 of WO2004/041266) was used.
First, NFAT-TA was cut out from pNFAT-TA-Luc (manufactured by BD Bioscience Clontech) with HindIII and NheI, the recovered fragment was inserted into pGL3 basic neo digested with HindIII and NheI to give plasmid:pGL3 basic neo NFAT-TA-Luc.
This plasmid was used for “the CHO cell line (CHO-hGPR40 No. 104), which was made to express human GPR40” described in WO2004/041266, and a cell line CHO(dhfr-)/GPR40-NFAT-Luc, wherein a reporter gene was stably expressed by a method known per se, was prepared.
This cell line was diluted with a medium (nucleic acid-free MEM (Minimum Essential Medium)—α medium added with dialyzed FBS (Fetal Bovine Serum) to a final concentration of 10%) in such a manner that 2×10^4 cells/100 μl would be contained, dispensed to a white walled 96 well plate (manufactured by Coster) by 100 μl per well, and cultured overnight in a CO2 incubator. Then the medium was removed by suction from the 96 well plate, and a 10 mM test compound-dimethyl sulfoxide (manufactured by Wako Pure Chemical Industries, Ltd.) solution diluted with a medium (nucleic acid-free MEM—α medium added with bovine serum albumin (BSA) free of fatty acid to a final concentration of 0.1%) to each concentration was added by 50 μl per well. Further, 3-(4-((6-benzyloxy-2′,6′-dimethyl-biphenyl-3-yl)methoxy)phenyl)propanoic acid diluted with a medium (nucleic acid-free MEM-α (medium added with BSA free of fatty acid to a final concentration of 0.1%) to a final concentration of 40 nM was added to the 96 well plate by 50 μl per well.
After culture in a CO2 incubator for 4 hr, the culture medium was removed from the 96 well plate. Then, PicaGene (manufactured by TOYO INK MFG. CO., LTD.) was added to the 96 well plate, and the luciferase activity was determined using PerkinElmer ARVO (trade name, manufactured by PerkinElmer), based on which changes in the intracellular calcium concentration were evaluated. After assay of luciferase activity, nonlinear regression analysis was performed using PRISM 3 (trade name, manufactured by GraphPad) and IC50 value was calculated with changes in the intracellular calcium concentration as an index.
In the same manner as in Experimental Example 1, the IC50 value of the compound of the present invention was calculated.

rat pancreatic islet = assay: Insulin secretion suppressive activity using rat pancreatic islet (palmitic acid stimulation); assay type: cell-based; conditions: glucose 16 mM, compound 10 μM, 30 min, mean ± SD (n = 4)
Protocol: The effect of the compound of the present invention on the insulin secretion from the rat pancreatic islet, which is induced by palmitic acid stimulation, was evaluated.
Male SD rats (7-week-old, Clea Japan, Inc.) were anesthetized with Nembutal (50 mg/kg, i.p.) and subjected to laparotomy. While confirming and following the course of the common bile duct to the peripheral thereof, and the duct was ligated at the liver side immediately from the opening of the duodenum. Then, the common bile duct was detached from the surrounding tissue on the duodenum side from the hepatic duct bifurcation and a thread was placed thereon. An indwelling needle (22G, manufactured by TERUMO CORPORATION) was inserted into the common bile duct at a position on the liver side from this part and fixed by ligation with the thread placed earlier thereon. 10 ml of 150 mg/ml collagenase (manufactured by Wako Pure Chemical Industries, Ltd., for cell dispersion)-Hank's Balanced Salt Solution (HBSS, manufactured by Invitrogen)-1% Bovine Serum Albumin (BSA, manufactured by Wako Pure Chemical Industries, Ltd.) −0.01 mg/ml DnaseI (manufactured by Roche Molecular Biochemicals)-2.5% N-2-Hydroxyethylpiperazine-N′-2-Ethane Sulfonic Acid (HEPES, manufactured by Invitrogen) was injected from the common bile duct. […]

T1 sequence (O14842 whole entry): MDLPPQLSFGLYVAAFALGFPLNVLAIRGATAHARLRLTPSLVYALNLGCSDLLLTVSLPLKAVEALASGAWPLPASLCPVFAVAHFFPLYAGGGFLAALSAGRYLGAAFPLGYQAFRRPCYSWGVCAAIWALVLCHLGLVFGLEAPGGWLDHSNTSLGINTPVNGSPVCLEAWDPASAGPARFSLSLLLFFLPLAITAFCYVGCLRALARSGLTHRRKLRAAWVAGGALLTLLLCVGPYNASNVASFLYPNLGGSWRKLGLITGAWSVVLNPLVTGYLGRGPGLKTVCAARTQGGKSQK

SMILES | pIC50 (human GPR40) | insulin secretion amount (rat pancreatic islet; palmitic acid 0 mM) [pg/ng DNA] | insulin secretion amount (rat pancreatic islet; palmitic acid 1 mM) [pg/ng DNA] | melting point [°C]
CCOc1ccc(-n2c(SCc3ccc(Cl)cc3)nc3ccc(Cl)cc32)cc1 [Example 10, 6-chloro-2-[(4-chlorobenzyl)thio]-1-(4-ethoxyphenyl)-1H-benzimidazole] | > 7.00 | 353 ± 122 | 369 ± 141 | 129 to 130
CCOc1ccc(-n2c(NCc3ccc(Cl)cc3)nc3cc(Cl)ccc32)cc1 [Example 82, 5-Chloro-N-(4-chlorobenzyl)-1-(4-ethoxyphenyl)-1H-benzimidazol-2-amine] | > 7.00 |  |  | 109 to 110
CCOc1ccc(-n2c(SCc3ccc(C(F)(F)F)cc3)nc3ccc(Cl)cc32)cc1 [Example 33, 6-Chloro-1-(4-ethoxyphenyl)-2-{[4-(trifluoromethyl)benzyl]thio}-1H-benzimidazole] | > 7.00 |  |  | 103 to 104
CCCCOc1ccc(-n2c(NCc3ccc(Cl)cc3)nc3cc(Cl)c(Cl)cc32)cc1 [Example 101, 1-(4-Butoxyphenyl)-5,6-dichloro-N-(4-chlorobenzyl)-1H-benzimidazol-2-amine] | > 7.00 |  |  | 162 to 163
CCOc1ccc(-n2c(NCc3ccc(Cl)cc3)nc3cc(Cl)c(Cl)cc32)cc1 [Example 94, 5,6-Dichloro-N-(4-chlorobenzyl)-1-(4-ethoxyphenyl)-1H-benzimidazol-2-amine] | > 7.00 |  |  | 141 to 142
CCCCOc1ccc(-n2c(SCc3ccc(Cl)cc3)nc3cc(Cl)ccc32)cc1.Cl [Example 122, 1-(4-Butoxyphenyl)-5-chloro-2-[(4-chlorobenzyl)thio]-1H-benzimidazole hydrochloride] | > 7.00 |  |  | 83 to 89
CC(C)(C)c1ccc(CNc2nc3cc(Cl)c(Cl)cc3n2-c2ccc(OCC(F)(F)F)cc2)cc1 [Example 102, N-(4-tert-Butylbenzyl)-5,6-dichloro-1-[4-(2,2,2-trifluoroethoxy)phenyl]-1H-benzimidazol-2-amine] | > 7.00 |  |  | 136 to 137
CCOc1ccc(-n2c(NCc3ccc(C(C)(C)C)cc3)nc3cc(Cl)c(Cl)cc32)cc1 [Example 93, N-(4-tert-Butylbenzyl)-5,6-dichloro-1-(4-ethoxyphenyl)-1H-benzimidazol-2-amine] | > 7.00 |  |  | 186 to 187
FC(F)(F)COc1ccc(-n2c(SCc3ccc(Cl)cc3)nc3cc(Cl)c(Cl)cc32)cc1 [Example 131, 5,6-Dichloro-2-[(4-chlorobenzyl)thio]-1-[4-(2,2,2-trifluoroethoxy)phenyl]-1H-benzimidazole] | > 7.00 |  |  | 90 to 92
CCOc1ccc(-n2c(NCc3ccc(C(C)(C)C)cc3)nc3cc(Cl)ccc32)cc1 [Example 81, N-(4-tert-Butylbenzyl)-5-chloro-1-(4-ethoxyphenyl)-1H-benzimidazol-2-amine] | > 7.00 |  |  | 211 to 212
CCOc1ccc(-n2c(NCc3ccc(Cl)cc3)nc3ccc(Cl)cc32)cc1 [Example 47, 6-Chloro-N-(4-chlorobenzyl)-1-(4-ethoxyphenyl)-1H-benzimidazol-2-amine] | > 7.00 |  |  | 135 to 136
COc1ccc(-n2c(NCc3ccc(C(C)(C)C)cc3)nc3ccc(Cl)cc32)cc1 [Example 72, N-(4-tert-Butylbenzyl)-6-chloro-1-(4-methoxyphenyl)-1H-benzimidazol-2-amine] | > 7.00 |  |  | 208 to 209
CCOc1ccc(-n2c(SCc3ccc(Cl)cc3)nc3cc(Cl)c(Cl)cc32)cc1 [Example 111, 5,6-Dichloro-2-[(4-chlorobenzyl)thio]-1-(4-ethoxyphenyl)-1H-benzimidazole] | > 7.00 |  |  | 131 to 132
Clc1ccc(CSc2nc3ccc(Cl)cc3n2-c2ccc(C3OCCO3)cc2)cc1 [Example 132, 6-Chloro-2-[(4-chlorobenzyl)thio]-1-[4-(1,3-dioxolan-2-yl)phenyl]-1H-benzimidazole] | > 7.00 |  |  | 129 to 130
CCOc1ccc(-n2c(NCc3ccc(Br)cc3)nc3cc(Cl)c(Cl)cc32)cc1 [Example 95, N-(4-Bromobenzyl)-5,6-dichloro-1-(4-ethoxyphenyl)-1H-benzimidazol-2-amine] | > 7.00 |  |  | 92 to 93
CCCOc1ccc(-n2c(NCc3ccc(Cl)cc3)nc3ccc(Cl)cc32)cc1 [Example 74, 6-Chloro-N-(4-chlorobenzyl)-1-(4-propoxyphenyl)-1H-benzimidazol-2-amine] | > 7.00 |  |  | 130 to 131
CCCOc1ccc(-n2c(SCc3ccc(Cl)cc3)nc3cc(Cl)ccc32)cc1.Cl [Example 121, 5-Chloro-2-[(4-chlorobenzyl)thio]-1-(4-propoxyphenyl)-1H-benzimidazole hydrochloride] | > 7.00 |  |  | 104 to 112
